Experiments:
Caco-2 cell monolayers = experiment: Caco-2 cell permeability; format: in vitro ADME, human; conditions: polarized Caco-2 cell monolayers
[1] = test system: human induced pluripotent stem cell (iPSC)-derived cardiomyocytes, iCell Cardiomyocytes2; experiment: Cardiac safety assay, Ca2+ oscillation in iPSC-derived cardiomyocytes; conditions: 60 minutes, n = 3

| SMILES | Caco-2 cell permeability Class (Caco-2 cell monolayers) | Effect on pulse waveforms and beat intervals (Ca2+ oscillation) ([1]; 0.2 μM) | Effect on pulse waveforms and beat intervals (Ca2+ oscillation) ([1]; 2 μM) | Effect on pulse waveforms and beat intervals (Ca2+ oscillation) ([1]; 20 μM) |
| --- | --- | --- | --- | --- |
| O=C(C1CCCCC1)N1CON2CCc3ccccc3C2C1 (centres unmarked) [Compound 4] | High | did not affect the pulse waveforms and beat intervals | the pulse waveforms remained unchanged, but a slight shortening of beat intervals was observed for up to 30 minutes post-addition | did not alter the pulse waveforms, but resulted in shortened beat intervals |
| O=C(C1CCCCC1)N1CC(=O)N2CCc3ccccc3C2C1 (centres unmarked) [PZQ, praziquantel, reference compound] | High |  |  |  |

From publication PMC11467761 (RSC Medicinal Chemistry, 2024)
